Results reported in patent US20060110451A1, “Formulations of [1,4]diazepino[6,7,1-IJ]quinoline derivatives” (priority 2004, published 2006).

What was measured:
[1] = Ascending multiple dose pharmacokinetics of enteric coated capsules in healthy subjects; assay type: in vivo, human; conditions: human, plasma, po, healthy subjects
Procedure: Ascending multiple doses of 25, 50, 75, 100, 150, and 250 mg Compound A.HCl were administered as twice-daily regimen (q12h) for 14 days in cohorts of 8 healthy subjects (6 active and 2 placebo). Blood samples for Compound A.HCl analysis were obtained on days 1 and 14 within 2 hours of test article administration and at various time points from 0.5 to 48 hours after test article administration. Doses were administered orally after an overnight fast of at least 10 hours on these 2 days. Trough PK samples were collected on days 7, 10, and 12 to assess whether steady-state had been reached.
A total of 48 subjects contributed pharmacokinetic data for this analysis. […] FIGS. 4A and 4B show the relationship between Cmax vs. dose and AUC vs. dose, respectively.

[2] = Ascending multiple dose pharmacokinetics of enteric coated capsules in schizophrenic patients; assay type: in vivo, human; conditions: for Tmax / half-life / AUC(0-t) / Cmax / AUC(0-inf): plasma
Procedure: Ascending multiple doses of 100, 150, and 250 mg Compound A.HCl were administered as twice-daily regimen (q12h) for 10 days in cohorts of 8 schizophrenic patients (6 active and 2 placebo). Blood samples for Compound A.HCl analysis were obtained on day 1 within 2 hours of test article administration and at various time points from 0.5 to 24 hours after test article administration. On day 10, blood samples were collected up to 12 hours after dose administration. Doses were administered orally after an overnight fast of at least 10 hours on these 2 days. Trough PK samples were collected on days 6, 8, and 9 to assess whether steady-state has been reached.
FIGS. 7A and 7B show the relationship between Cmax vs. dose and AUC vs. dose, respectively.

[3] = Single ascending dose study; assay type: in vivo; conditions: single oral doses of 500 mg

## Cl.c1cc2c3c(c1)[C@H]1CCC[C@H]1CN3CCNC2 [Compound A.HCl, (9aR,12aS)-4,5,6,7,9,9a,10,11,12,12a-decahydrocyclopenta[c][1,4]diazepino[6,7,1-ij]quinoline hydrochloride]
[1]; 150 mg, multiple oral doses (q12 h) 150 mg, day 14, read-out: t1/2 (Geom. Mean) (converted)
  half-life: 420 min
[1]; 150 mg, multiple oral doses (q12 h) 150 mg, day 14, read-out: t1/2 (Mean) (converted)
  half-life: 422 min
[1]; 150 mg, single oral dose 150 mg, day 1, read-out: AUC0-∞ (Geom. Mean)
  AUC(0-inf): 55.3 ng·h/mL
[1]; 150 mg, single oral dose 150 mg, day 1, read-out: AUC0-∞ (Mean)
  AUC(0-inf): 70.2 ng·h/mL
[1]; 150 mg, single oral dose 150 mg, day 1, read-out: Cmax (Geom. Mean)
  Cmax: 3.67 ng/mL
[1]; 150 mg, single oral dose 150 mg, day 1, read-out: Cmax (Mean)
  Cmax: 5.05 ng/mL
[1]; 150 mg, single oral dose 150 mg, day 1, read-out: Tmax (Geom. Mean)
  Tmax: 5.6 h
[1]; 150 mg, single oral dose 150 mg, day 1, read-out: Tmax (Mean)
  Tmax: 5.7 h
[1]; 150 mg, single oral dose 150 mg, day 1, read-out: t1/2 (Geom. Mean) (converted)
  half-life: 540 min
[1]; 150 mg, single oral dose 150 mg, day 1, read-out: t1/2 (Mean) (converted)
  half-life: 545 min
[1]; 250 mg, multiple oral doses (q12 h) 250 mg, day 14, read-out: AUCss (AUC0-12) (Geom. Mean)
  AUC(0-t): 218 ng·h/mL
[1]; 250 mg, multiple oral doses (q12 h) 250 mg, day 14, read-out: AUCss (AUC0-12) (Mean)
  AUC(0-t): ~235 ng·h/mL
[1]; 250 mg, multiple oral doses (q12 h) 250 mg, day 14, read-out: Cmax (Geom. Mean)
  Cmax: 25.6 ng/mL
[1]; 250 mg, multiple oral doses (q12 h) 250 mg, day 14, read-out: Cmax (Mean)
  Cmax: 26.8 ng/mL
[1]; 250 mg, multiple oral doses (q12 h) 250 mg, day 14, read-out: Tmax (Geom. Mean)
  Tmax: 5.9 h
[1]; 250 mg, multiple oral doses (q12 h) 250 mg, day 14, read-out: Tmax (Mean)
  Tmax: 6.2 h
[1]; 250 mg, multiple oral doses (q12 h) 250 mg, day 14, read-out: t1/2 (Geom. Mean) (converted)
  half-life: 419 min
[1]; 250 mg, multiple oral doses (q12 h) 250 mg, day 14, read-out: t1/2 (Mean) (converted)
  half-life: 427 min
[1]; 250 mg, single oral dose 250 mg, day 1, read-out: AUC0-∞ (Geom. Mean)
  AUC(0-inf): 84.7 ng·h/mL
[1]; 250 mg, single oral dose 250 mg, day 1, read-out: AUC0-∞ (Mean)
  AUC(0-inf): 95.5 ng·h/mL
[1]; 250 mg, single oral dose 250 mg, day 1, read-out: Cmax (Geom. Mean)
  Cmax: 5.91 ng/mL
[1]; 250 mg, single oral dose 250 mg, day 1, read-out: Cmax (Mean)
  Cmax: 6.27 ng/mL
[1]; 250 mg, single oral dose 250 mg, day 1, read-out: Tmax (Geom. Mean)
  Tmax: 5.9 h
[1]; 250 mg, single oral dose 250 mg, day 1, read-out: Tmax (Mean)
  Tmax: 6 h
[1]; 250 mg, single oral dose 250 mg, day 1, read-out: t1/2 (Geom. Mean) (converted)
  half-life: 595 min
[1]; 250 mg, single oral dose 250 mg, day 1, read-out: t1/2 (Mean) (converted)
  half-life: 627 min
[2]; after excluding 2 outlier patients
  relationship between dose and exposure: approximately linear
[2]; at the 250 mg q12h dose level
  difference in Tmax or t1/2: no significant difference
[2]; human, in vivo
  differences in pharmacokinetics between healthy subjects and schizophrenic patients: No significant differences
[2]; human, oral, schizophrenic patients, single and multiple dose administration, enteric-coated formulation, read-out: mean Tmax
  Tmax: 4 to 5 h
[2]; human, oral, schizophrenic patients, single dose administration, read-out: mean elimination t1/2
  half-life: 480 to 600 min
[2]; human, po, 100 mg, Schizophrenia patients, multiple oral doses (q12 h) 100 mg, day 10, read-out: AUCss (AUC0-12) (Geom. Mean)
  AUC(0-t): 31.2 ng·h/mL
[2]; human, po, 100 mg, Schizophrenia patients, multiple oral doses (q12 h) 100 mg, day 10, read-out: AUCss (AUC0-12) (Mean)
  AUC(0-t): ~33.2 ng·h/mL
[2]; human, po, 100 mg, Schizophrenia patients, multiple oral doses (q12 h) 100 mg, day 10, read-out: Cmax (Geom. Mean)
  Cmax: 3.82 ng/mL
[2]; human, po, 100 mg, Schizophrenia patients, multiple oral doses (q12 h) 100 mg, day 10, read-out: Cmax (Mean)
  Cmax: 4 ng/mL
[2]; human, po, 100 mg, Schizophrenia patients, multiple oral doses (q12 h) 100 mg, day 10, read-out: Tmax (Geom. Mean)
  Tmax: 4.6 h
[2]; human, po, 100 mg, Schizophrenia patients, multiple oral doses (q12 h) 100 mg, day 10, read-out: Tmax (Mean)
  Tmax: 4.8 h
[2]; human, po, 100 mg, Schizophrenia patients, single oral dose 100 mg, day 1, read-out: AUC0-∞ (Geom. Mean)
  AUC(0-inf): 27.1 ng·h/mL
[2]; human, po, 100 mg, Schizophrenia patients, single oral dose 100 mg, day 1, read-out: AUC0-∞ (Mean)
  AUC(0-inf): 30.6 ng·h/mL
[2]; human, po, 100 mg, Schizophrenia patients, single oral dose 100 mg, day 1, read-out: Cmax (Geom. Mean)
  Cmax: 2.07 ng/mL
[2]; human, po, 100 mg, Schizophrenia patients, single oral dose 100 mg, day 1, read-out: Cmax (Mean)
  Cmax: 2.21 ng/mL
[2]; human, po, 100 mg, Schizophrenia patients, single oral dose 100 mg, day 1, read-out: Tmax (Geom. Mean)
  Tmax: 4.7 h
[2]; human, po, 100 mg, Schizophrenia patients, single oral dose 100 mg, day 1, read-out: Tmax (Mean)
  Tmax: 4.8 h
[2]; human, po, 100 mg, Schizophrenia patients, single oral dose 100 mg, day 1, read-out: t1/2 (Geom. Mean) (converted)
  half-life: 520 min
[2]; human, po, 100 mg, Schizophrenia patients, single oral dose 100 mg, day 1, read-out: t1/2 (Mean) (converted)
  half-life: 536 min
[2]; human, po, 150 mg, Schizophrenia patients, multiple oral doses (q12 h) 150 mg, day 10, read-out: AUCss (AUC0-12) (Geom. Mean)
  AUC(0-t): 51.3 ng·h/mL
[2]; human, po, 150 mg, Schizophrenia patients, multiple oral doses (q12 h) 150 mg, day 10, read-out: AUCss (AUC0-12) (Mean)
  AUC(0-t): ~54.9 ng·h/mL
[2]; human, po, 150 mg, Schizophrenia patients, multiple oral doses (q12 h) 150 mg, day 10, read-out: Cmax (Geom. Mean)
  Cmax: 6.67 ng/mL
[2]; human, po, 150 mg, Schizophrenia patients, multiple oral doses (q12 h) 150 mg, day 10, read-out: Cmax (Mean)
  Cmax: 7.21 ng/mL
[2]; human, po, 150 mg, Schizophrenia patients, multiple oral doses (q12 h) 150 mg, day 10, read-out: Tmax (Geom. Mean)
  Tmax: 4.2 h
[2]; human, po, 150 mg, Schizophrenia patients, multiple oral doses (q12 h) 150 mg, day 10, read-out: Tmax (Mean)
  Tmax: 4.3 h
[2]; human, po, 150 mg, Schizophrenia patients, single oral dose 150 mg, day 1, read-out: AUC0-∞ (Geom. Mean)
  AUC(0-inf): 34 ng·h/mL
[2]; human, po, 150 mg, Schizophrenia patients, single oral dose 150 mg, day 1, read-out: AUC0-∞ (Mean)
  AUC(0-inf): 35.6 ng·h/mL
[2]; human, po, 150 mg, Schizophrenia patients, single oral dose 150 mg, day 1, read-out: Cmax (Geom. Mean)
  Cmax: 3.09 ng/mL
[2]; human, po, 150 mg, Schizophrenia patients, single oral dose 150 mg, day 1, read-out: Cmax (Mean)
  Cmax: 3.37 ng/mL
[2]; human, po, 150 mg, Schizophrenia patients, single oral dose 150 mg, day 1, read-out: Tmax (Geom. Mean)
  Tmax: 4.2 h
[2]; human, po, 150 mg, Schizophrenia patients, single oral dose 150 mg, day 1, read-out: Tmax (Mean)
  Tmax: 4.6 h
[2]; human, po, 150 mg, Schizophrenia patients, single oral dose 150 mg, day 1, read-out: t1/2 (Geom. Mean) (converted)
  half-life: 555 min
[2]; human, po, 150 mg, Schizophrenia patients, single oral dose 150 mg, day 1, read-out: t1/2 (Mean) (converted)
  half-life: 569 min
[2]; human, po, 250 mg, Schizophrenia patients, multiple oral doses (q12 h) 250 mg, day 10, read-out: AUCss (AUC0-12) (Geom. Mean)
  AUC(0-t): 134 ng·h/mL
[2]; human, po, 250 mg, Schizophrenia patients, multiple oral doses (q12 h) 250 mg, day 10, read-out: AUCss (AUC0-12) (Mean)
  AUC(0-t): ~173 ng·h/mL
[2]; human, po, 250 mg, Schizophrenia patients, multiple oral doses (q12 h) 250 mg, day 10, read-out: Cmax (Geom. Mean)
  Cmax: 15.9 ng/mL
[2]; human, po, 250 mg, Schizophrenia patients, multiple oral doses (q12 h) 250 mg, day 10, read-out: Cmax (Mean)
  Cmax: 20.6 ng/mL
[2]; human, po, 250 mg, Schizophrenia patients, multiple oral doses (q12 h) 250 mg, day 10, read-out: Tmax (Mean)
  Tmax: 4.8 h
[2]; human, po, 250 mg, Schizophrenia patients, single oral dose 250 mg, day 1, read-out: AUC0-∞ (Geom. Mean)
  AUC(0-inf): 76.1 ng·h/mL
[2]; human, po, 250 mg, Schizophrenia patients, single oral dose 250 mg, day 1, read-out: AUC0-∞ (Mean)
  AUC(0-inf): 109 ng·h/mL
[2]; human, po, 250 mg, Schizophrenia patients, single oral dose 250 mg, day 1, read-out: Cmax (Geom. Mean)
  Cmax: 5.71 ng/mL
[2]; human, po, 250 mg, Schizophrenia patients, single oral dose 250 mg, day 1, read-out: Cmax (Mean)
  Cmax: 8.89 ng/mL
[2]; human, po, 250 mg, Schizophrenia patients, single oral dose 250 mg, day 1, read-out: Tmax (Geom. Mean)
  Tmax: 4.7 h
[2]; human, po, 250 mg, Schizophrenia patients, single oral dose 250 mg, day 1, read-out: Tmax (Mean)
  Tmax: 5 h
[2]; human, po, 250 mg, Schizophrenia patients, single oral dose 250 mg, day 1, read-out: t1/2 (Geom. Mean) (converted)
  half-life: 464 min
[2]; human, po, 250 mg, Schizophrenia patients, single oral dose 250 mg, day 1, read-out: t1/2 (Mean) (converted)
  half-life: 482 min
[3]
  dose proportionality of exposure: signs of nonlinearity
